Results: the CheMixHub viscosity set
“And” between values parts separate entries of the source, which are not always exact repeats. Identical values can stand only once.

Assay: xn = mol fraction of the nth substance listed

CN(C)C=O + CO
Details | viscosity
293.15 K, 101 kPa, x2 = 0.0998 | 0.835 mPa·s
293.15 K, 101 kPa, x2 = 0.2 | 0.809 mPa·s
293.15 K, 101 kPa, x2 = 0.3 | 0.782 mPa·s
293.15 K, 101 kPa, x2 = 0.4002 | 0.754 mPa·s
293.15 K, 101 kPa, x2 = 0.5 | 0.723 mPa·s
293.15 K, 101 kPa, x2 = 0.6 | 0.693 mPa·s
293.15 K, 101 kPa, x2 = 0.6997 | 0.665 mPa·s
293.15 K, 101 kPa, x2 = 0.8 | 0.64 mPa·s
293.15 K, 101 kPa, x2 = 0.8998 | 0.613 mPa·s
298 K, 101.3 kPa, x2 = 0.1198 | 0.766 mPa·s
298 K, 101.3 kPa, x2 = 0.2267 | 0.739 mPa·s
298 K, 101.3 kPa, x2 = 0.4094 | 0.693 mPa·s
298 K, 101.3 kPa, x2 = 0.5596 | 0.655 mPa·s
298 K, 101.3 kPa, x2 = 0.6854 | 0.623 mPa·s
298 K, 101.3 kPa, x2 = 0.7922 | 0.596 mPa·s
298 K, 101.3 kPa, x2 = 0.884 | 0.573 mPa·s
298 K, 101.3 kPa, x2 = 0.9639 | 0.553 mPa·s
298.15 K, 101 kPa, x1 = 0.3048 | 0.568 mPa·s
298.15 K, 101 kPa, x2 = 0.0998 | 0.782 mPa·s
298.15 K, 101 kPa, x2 = 0.2 | 0.758 mPa·s
298.15 K, 101 kPa, x2 = 0.3 | 0.734 mPa·s
298.15 K, 101 kPa, x2 = 0.4002 | 0.705 mPa·s
298.15 K, 101 kPa, x2 = 0.5 | 0.678 mPa·s
298.15 K, 101 kPa, x2 = 0.6 | 0.649 mPa·s
298.15 K, 101 kPa, x2 = 0.6997 | 0.622 mPa·s
298.15 K, 101 kPa, x2 = 0.8 | 0.596 mPa·s
298.15 K, 101 kPa, x2 = 0.8998 | 0.572 mPa·s
303.15 K, 101 kPa, x1 = 0.0995 | 0.5458 mPa·s
303.15 K, 101 kPa, x1 = 0.2004 | 0.5714 mPa·s
303.15 K, 101 kPa, x1 = 0.3004 | 0.5986 mPa·s
303.15 K, 101 kPa, x1 = 0.3993 | 0.6269 mPa·s
303.15 K, 101 kPa, x1 = 0.5008 | 0.6547 mPa·s
303.15 K, 101 kPa, x1 = 0.5728 | 0.6716 mPa·s
303.15 K, 101 kPa, x1 = 0.6998 | 0.7023 mPa·s
303.15 K, 101 kPa, x1 = 0.8014 | 0.7263 mPa·s
303.15 K, 101 kPa, x1 = 0.8996 | 0.7515 mPa·s
303.15 K, 101 kPa, x2 = 0.0998 | 0.736 mPa·s
303.15 K, 101 kPa, x2 = 0.2 | 0.713 mPa·s
303.15 K, 101 kPa, x2 = 0.3 | 0.688 mPa·s
303.15 K, 101 kPa, x2 = 0.4002 | 0.663 mPa·s
303.15 K, 101 kPa, x2 = 0.5 | 0.674 mPa·s and 0.636 mPa·s
303.15 K, 101 kPa, x2 = 0.6 | 0.608 mPa·s
303.15 K, 101 kPa, x2 = 0.6997 | 0.584 mPa·s
303.15 K, 101 kPa, x2 = 0.8 | 0.559 mPa·s
303.15 K, 101 kPa, x2 = 0.8998 | 0.534 mPa·s
308.15 K, 101 kPa, x1 = 0.0995 | 0.5094 mPa·s
308.15 K, 101 kPa, x1 = 0.2004 | 0.5345 mPa·s
308.15 K, 101 kPa, x1 = 0.3004 | 0.5606 mPa·s
308.15 K, 101 kPa, x1 = 0.3993 | 0.5882 mPa·s
308.15 K, 101 kPa, x1 = 0.5008 | 0.6152 mPa·s
308.15 K, 101 kPa, x1 = 0.5728 | 0.6314 mPa·s
308.15 K, 101 kPa, x1 = 0.6998 | 0.6621 mPa·s
308.15 K, 101 kPa, x1 = 0.8014 | 0.6853 mPa·s
308.15 K, 101 kPa, x1 = 0.8996 | 0.7087 mPa·s
313.15 K, 101 kPa, x1 = 0.0995 | 0.4776 mPa·s
313.15 K, 101 kPa, x1 = 0.2004 | 0.5008 mPa·s
313.15 K, 101 kPa, x1 = 0.3004 | 0.5259 mPa·s
313.15 K, 101 kPa, x1 = 0.3993 | 0.5524 mPa·s
313.15 K, 101 kPa, x1 = 0.5008 | 0.5781 mPa·s
313.15 K, 101 kPa, x1 = 0.5728 | 0.5933 mPa·s
313.15 K, 101 kPa, x1 = 0.6998 | 0.6213 mPa·s
313.15 K, 101 kPa, x1 = 0.8014 | 0.644 mPa·s
313.15 K, 101 kPa, x1 = 0.8996 | 0.667 mPa·s
313.15 K, 101 kPa, x2 = 0.0998 | 0.655 mPa·s
313.15 K, 101 kPa, x2 = 0.2 | 0.635 mPa·s
313.15 K, 101 kPa, x2 = 0.3 | 0.612 mPa·s
313.15 K, 101 kPa, x2 = 0.4002 | 0.589 mPa·s
313.15 K, 101 kPa, x2 = 0.5 | 0.58 mPa·s and 0.565 mPa·s
313.15 K, 101 kPa, x2 = 0.6 | 0.54 mPa·s
313.15 K, 101 kPa, x2 = 0.6997 | 0.517 mPa·s
313.15 K, 101 kPa, x2 = 0.8 | 0.493 mPa·s
313.15 K, 101 kPa, x2 = 0.8998 | 0.47 mPa·s
318.15 K, 101 kPa, x1 = 0.0995 | 0.4467 mPa·s
318.15 K, 101 kPa, x1 = 0.2004 | 0.4692 mPa·s
318.15 K, 101 kPa, x1 = 0.3004 | 0.4936 mPa·s
318.15 K, 101 kPa, x1 = 0.3993 | 0.5191 mPa·s
318.15 K, 101 kPa, x1 = 0.5008 | 0.5439 mPa·s
318.15 K, 101 kPa, x1 = 0.5728 | 0.5587 mPa·s
318.15 K, 101 kPa, x1 = 0.6998 | 0.5861 mPa·s
318.15 K, 101 kPa, x1 = 0.8014 | 0.6075 mPa·s
318.15 K, 101 kPa, x1 = 0.8996 | 0.6304 mPa·s
323.15 K, 101 kPa, x1 = 0.0995 | 0.4174 mPa·s
323.15 K, 101 kPa, x1 = 0.2004 | 0.4387 mPa·s
323.15 K, 101 kPa, x1 = 0.3004 | 0.4617 mPa·s
323.15 K, 101 kPa, x1 = 0.3993 | 0.4864 mPa·s
323.15 K, 101 kPa, x1 = 0.5008 | 0.51 mPa·s
323.15 K, 101 kPa, x1 = 0.5728 | 0.5243 mPa·s
323.15 K, 101 kPa, x1 = 0.6998 | 0.5501 mPa·s
323.15 K, 101 kPa, x1 = 0.8014 | 0.5705 mPa·s
323.15 K, 101 kPa, x1 = 0.8996 | 0.5923 mPa·s
323.15 K, 101 kPa, x2 = 0.0998 | 0.588 mPa·s
323.15 K, 101 kPa, x2 = 0.2 | 0.569 mPa·s
323.15 K, 101 kPa, x2 = 0.3 | 0.549 mPa·s
323.15 K, 101 kPa, x2 = 0.4002 | 0.528 mPa·s
323.15 K, 101 kPa, x2 = 0.5 | 0.503 mPa·s and 0.506 mPa·s
323.15 K, 101 kPa, x2 = 0.6 | 0.483 mPa·s
323.15 K, 101 kPa, x2 = 0.6997 | 0.46 mPa·s
323.15 K, 101 kPa, x2 = 0.8 | 0.438 mPa·s
323.15 K, 101 kPa, x2 = 0.8998 | 0.415 mPa·s
